The results in this text go back to patent US20080175837A1, “DPP4 INHIBITOR AND PHARMACEUTICAL USE THEREOF” (AJINOMOTO CO., INC, priority 2005, published 2008).

Residues, ends and D or L forms follow the SMILES beside them.

The target of test [1] is T1, recombinant human dipeptidyl peptidase IV (rhDpp4) (Homo sapiens, UniProt P27487).
T1 construct: purchased R&D Systems 1180-SE
Put plainly: Inhibiting activity against rhDpp4 (G-P-pNA cleavage, absorbance at 405 nm). Format: biochemical. The procedure:
The inhibiting activity of each test compound was determined against the cleaving activity of GLY-PRO-p-nitroanihde (G-P-pNA, by Sigma, #G-0513), which is a synthetic substrate of recombinant human dipeptidyl peptidase IV (rhDpp4, by R&D Systems, #1180-SE). G-P-pNA was cleaved between PRO and pNA by rhDpp4. Since pNA is absorbed at 405 nm, the value thereof was measured to determine the cleavage amount.
The reaction solution (25 mM Tris (pH8.0), 100 uM G-P-pNA, 0.25 ng/ul rhDPP4) was prepared and added to the test compound so that the final concentration of the test compound became 2 mM (1% DMSO concentration). The reaction solution was kept in 37° C. for 30 minutes. After that, the absorbance at 405 nm was measured at once by a spectrophotometer. The reaction was conducted in 200 ul scale with a 96-well microplate.
At the same time, the absorbance at 405 nm of each 100, 33, 11, 3.7, 1.2, 0.41, and 0.14 uM pNA solution was measured to obtain the relational formula of pNA concentration and absorbance, and the pNA amount (the substrate cleavage amount) in each reaction solution was calculated.
As for the inhibition rate, 3 to 4 wells without the test compound were prepared in the same plate. Then, the inhibition rate was calculated and shown in percentage by using the following formula from the proportion of the substrate cleavage amount (B) of the well to which each test compound was added to the average amount (A) of the substrate cleavage amount of the well without the test compound.
Inhibition rate (%)=100×(1−(B)/(A))

In a further test the test system is rat hepatic cells. Put plainly: Measurement of autophagy (proteolysis, valine release) by using rat hepatic cells. Format: cell-based. The procedure: Male Wistar rats of 140 to 180 g which were freely fed were used to prepare rat hepatic cells by the collagenase perfusion method (Seglen, P.O. Preparation of isolated liver cells. (1976) In Methods in Cell Biology eds. D. M. Prescott, 13, 29-83. Academic: New York/London). By this method, 2 to 2.5×10^8 cells of the hepatic cells per one individual's […] could be prepared.
The protein decomposition (autophagy) of the prepared hepatic cells was determined by the method of Venerando, et al. Namely, the hepatic cells were put in a 10 mL flask with 3.5 mL of KRB buffer (24 mM bicarbonate, 6 mM glucose) to prepare a cell suspension (1 to 1.2×10^6 cells/mL). The solution was kept and left in 37° C. for 45 minutes in a carbon dioxide incubator. Then, various chemical treatments were conducted under the existence of 20 uM cycloheximide in order to stop the protein synthesis, and the solution was kept at 37° C. for […]. At each 31 minutes and 42 minutes, 0.35 mL of the hepatic cell suspension was taken out, and a perchloric acid cooled with ice (final concentration 6%) was added to the latter and preserved at −20° C. Valine in the supernatant of the acid-soluble fraction was measured, and valine release for 11 minutes was determined. […]

Test [2] deals with T2, p103 (rat dipeptidyl peptidase IV, DPP4) (Rattus norvegicus, UniProt P14740).
T2 construct: from tissue; host or cells: rat hepatocyte membrane
Put plainly: Bond of Leu8-MAP to leucine binding protein p103 on the hepatocyte membrane, competition by free amino acids. Conditions: excess free amino acid. The source says:
In order to solve the above problems, the inventors attempted to identify leucine binding protein that exists on the membrane of rat hepatic cells by using a membrane-impermeable leucine derivative (Leu8-MAP). As a result of the thorough search, they found a molecular weight of 103-kilodalton leucine-specific binding protein (p103) on the hepatocyte membrane. Though the bond of Leu8-MAP to p103 was inhibited by excess free leucine, it was not inhibited by isoleucine or valine. Therefore, p103 was protein that selectively bonds to leucine. Further, as a result of various examinations on the condition for purifying p103 from the hepatocyte membrane, they succeeded in isolating the above protein by purification and detected it as a single band protein by SDS-PAGE electrophoresis. This band was cleaved from the gel, and peptide fragmentation was conducted thereto by the in-gel reduction/alkylation and the enzyme digestion. Then, the mass spectrometry was conducted by providing the fragment with the equipment wherein a nanoHPLC system (Ultimate: Nippon Dionex K.K.) was connected to an ion trap mass spectrometer (LCQ: Thermo Electron Co., Ltd.). The obtained data was identified with a database search system (Mascot: Matrix Science, Ltd.). MSDB (Jan. 6, 2004 ver. by Matrix Science, Ltd.) was used as the sequence database for search. As a result, rat dipeptidyl peptidase IV (DPP4: EC 3.4.14.5) could be identified at a high score.

T2 sequence (P14740 whole entry): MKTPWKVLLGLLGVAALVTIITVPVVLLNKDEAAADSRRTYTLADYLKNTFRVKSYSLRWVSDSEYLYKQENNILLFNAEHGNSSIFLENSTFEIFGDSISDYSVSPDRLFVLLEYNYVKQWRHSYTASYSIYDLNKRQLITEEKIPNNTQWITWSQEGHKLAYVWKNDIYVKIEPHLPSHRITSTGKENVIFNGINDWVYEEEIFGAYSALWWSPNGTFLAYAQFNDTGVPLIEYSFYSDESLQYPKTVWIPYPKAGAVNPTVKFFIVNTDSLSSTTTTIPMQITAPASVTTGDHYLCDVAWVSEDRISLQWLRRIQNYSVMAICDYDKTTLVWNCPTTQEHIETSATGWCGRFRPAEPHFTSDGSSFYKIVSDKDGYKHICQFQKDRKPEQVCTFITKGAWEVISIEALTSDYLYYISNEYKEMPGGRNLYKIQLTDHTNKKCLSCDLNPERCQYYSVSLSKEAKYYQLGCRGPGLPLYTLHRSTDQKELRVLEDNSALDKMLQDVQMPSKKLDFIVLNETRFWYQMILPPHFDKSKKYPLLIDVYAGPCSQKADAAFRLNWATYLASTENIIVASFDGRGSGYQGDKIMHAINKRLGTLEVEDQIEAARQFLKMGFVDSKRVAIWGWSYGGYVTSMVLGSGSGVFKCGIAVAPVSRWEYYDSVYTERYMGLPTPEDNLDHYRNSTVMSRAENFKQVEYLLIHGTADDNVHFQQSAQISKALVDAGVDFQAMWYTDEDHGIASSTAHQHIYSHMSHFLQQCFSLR
T1 sequence (P27487 whole entry): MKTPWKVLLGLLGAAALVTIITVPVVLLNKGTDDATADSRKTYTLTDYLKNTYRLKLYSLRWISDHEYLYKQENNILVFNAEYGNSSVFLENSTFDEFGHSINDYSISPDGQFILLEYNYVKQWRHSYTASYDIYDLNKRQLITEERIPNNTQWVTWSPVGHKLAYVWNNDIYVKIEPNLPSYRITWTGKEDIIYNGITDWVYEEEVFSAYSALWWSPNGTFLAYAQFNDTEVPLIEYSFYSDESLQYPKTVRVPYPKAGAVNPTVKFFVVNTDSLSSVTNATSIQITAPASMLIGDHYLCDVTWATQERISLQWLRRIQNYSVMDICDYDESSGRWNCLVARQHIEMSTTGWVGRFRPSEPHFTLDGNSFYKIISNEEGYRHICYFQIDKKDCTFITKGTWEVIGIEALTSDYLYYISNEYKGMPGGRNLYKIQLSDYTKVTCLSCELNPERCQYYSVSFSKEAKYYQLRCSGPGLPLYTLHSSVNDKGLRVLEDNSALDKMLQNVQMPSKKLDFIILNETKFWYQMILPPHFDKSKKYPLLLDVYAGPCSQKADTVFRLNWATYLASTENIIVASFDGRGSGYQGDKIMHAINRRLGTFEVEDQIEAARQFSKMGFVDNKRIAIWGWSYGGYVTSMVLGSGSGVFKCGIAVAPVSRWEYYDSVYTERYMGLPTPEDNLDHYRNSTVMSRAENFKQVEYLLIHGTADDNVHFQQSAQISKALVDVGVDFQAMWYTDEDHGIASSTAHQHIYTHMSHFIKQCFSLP

As for `CC(C)C[C@H](N)C(=O)O` [Leucine, L-leucine], the “concentration-dependent Dpp4 inhibiting activity (FIG. 1), in words” value in test [1] (FIG. 1) was “inhibits Dpp4”. Further, in test [1], the “Dpp4 inhibiting activity among 20 kinds of amino acids (FIG. 2, substrate cleavage rate), in words” value is reported as “has the Dpp4 inhibiting activity”. For the same compound, in the test with rat hepatic cells, the “effect on autophagy induced by amino acid starvation, in words” value is “strongly inhibits autophagy”. In the test on rat hepatic cells (starvation induced proteolysis, 20 uM cycloheximide, valine release for 11 minutes), the “Inhibition of proteolysis (%)” value worked out at 27.9%. Moreover, in test [2], the “inhibition of the bond of Leu8-MAP to p103, in words” value (“inhibition of the bond of Leu8-MAP” for short) is reported as “inhibited”.
As for `CSCC[C@H](N)C(=O)O` [Met, L-methionine], the “Dpp4 inhibiting activity among 20 kinds of amino acids (FIG. 2, substrate cleavage rate), in words” value in test [1] is “has the Dpp4 inhibiting activity”.
Consider `CC(C)C[C@H](NC(=O)[C@@H](N)CCCCN)C(=O)O` [R1=L-Lys, R2=OH, Lys-Leu] (H-Lys-Leu-OH), for which the “Inhibition rate (%)” value in test [1] (test compound 2 mM, 100 uM G-P-pNA, 0.25 ng/ul rhDPP4, 37° C. for 30 minutes) was 38.4%.
Take `CC[C@H](C)[C@H](N)C(=O)O` [isoleucine]: the “inhibition of the bond of Leu8-MAP” value in test [2] is listed as “not inhibited”.
With `CC(C)[C@H](N)C(=O)O` [valine], in test [2], the “inhibition of the bond of Leu8-MAP” value was “not inhibited”.
